Our source for the inhibition of growth values is ChEMBL document CHEMBL5154747, “Discovery of new carbonic anhydrase IX inhibitors as anticancer agents by toning the hydrophobic and hydrophilic rims of the active site to encounter the dual-tail approach” (Eur J Med Chem, 2022).

Some results are limits rather than exact numbers.

What all share (format): functional
Common to all, as to details: read-out: GI

The subject of one test is SK-MEL-28. As to the kind of experiment: Anticancer activity against human SK-MEL-28 cells assessed as cell growth inhibition at 10 uM incubated for 48 hrs by SRB assay relative to control.
A further test deals with NCI-H522. The experiment in a line: Anticancer activity against human NCI-H522 cells assessed as cell growth inhibition at 10 uM incubated for 48 hrs by SRB assay relative to control. Background: Sulforhodamine B stains cellular protein and so reports cell mass.
For another test, the system named is EKVX. The experiment in a line: Anticancer activity against human EKVX cells assessed as cell growth inhibition at 10 uM incubated for 48 hrs by SRB assay relative to control.
The next test has as its system COLO 205. The experiment in a line: Anticancer activity against human COLO 205 cells assessed as cell growth inhibition at 10 uM incubated for 48 hrs by SRB assay relative to control.
Another test relates to OVCAR-8. The experiment in a line: Anticancer activity against human OVCAR-8 cells assessed as cell growth inhibition at 10 uM incubated for 48 hrs by SRB assay relative to control.
The test system of another test is SNB-19. The experiment in a line: Anticancer activity against human SNB-19 cells assessed as cell growth inhibition at 10 uM incubated for 48 hrs by SRB assay relative to control.
The subject of a further test is SK-OV-3. As to the kind of experiment: Anticancer activity against human SK-OV-3 cells assessed as cell growth inhibition at 10 uM incubated for 48 hrs by SRB assay relative to control.
The subject of a further test is NCI-H322M. The experiment in a line: Anticancer activity against human NCI-H322M cells assessed as cell growth inhibition at 10 uM incubated for 48 hrs by SRB assay relative to control.
The next test concerns SF-295. The experiment in a line: Anticancer activity against human SF-295 cells assessed as cell growth inhibition at 10 uM incubated for 48 hrs by SRB assay relative to control.
For a further test, the system named is 786-0. As to the kind of experiment: Anticancer activity against human 786-0 cells assessed as cell growth inhibition at 10 uM incubated for 48 hrs by SRB assay relative to control.
Another test concerns UO-31. The experiment in a line: Anticancer activity against human UO-31 cells assessed as cell growth inhibition at 10 uM incubated for 48 hrs by SRB assay relative to control.
A further test has as its system TK-10. The experiment in a line: Anticancer activity against human TK-10 cells assessed as cell growth inhibition at 10 uM incubated for 48 hrs by SRB assay relative to control.
A further test relates to IGROV-1. As to the kind of experiment: Anticancer activity against human IGROV-1 cells assessed as cell growth inhibition at 10 uM incubated for 48 hrs by SRB assay relative to control.
A further test has as its system RXF 393. The experiment in a line: Anticancer activity against human RXF 393 cells assessed as cell growth inhibition at 10 uM incubated for 48 hrs by SRB assay relative to control.
Another test deals with DU-145. As to the kind of experiment: Anticancer activity against human DU-145 cells assessed as cell growth inhibition at 10 uM incubated for 48 hrs by SRB assay relative to control.
Another test deals with Malme-3M. The experiment in a line: Anticancer activity against human Malme-3M cells assessed as cell growth inhibition at 10 uM incubated for 48 hrs by SRB assay relative to control.
The next test deals with LOX IMVI. The experiment in a line: Anticancer activity against human LOX IMVI cells assessed as cell growth inhibition at 10 uM incubated for 48 hrs by SRB assay relative to control.
The next test relates to SN12C. The experiment in a line: Anticancer activity against human SN12C cells assessed as cell growth inhibition at 10 uM incubated for 48 hrs by SRB assay relative to control.
The test system of the next test is HT-29. As to the kind of experiment: Anticancer activity against human HT-29 cells assessed as cell growth inhibition at 10 uM incubated for 48 hrs by SRB assay relative to control.
In the next test the test system is Hs-578T. The experiment in a line: Anticancer activity against human Hs-578T cells assessed as cell growth inhibition at 10 uM incubated for 48 hrs by SRB assay relative to control.

With `NNc1nc(Nc2ccccc2)nc(Nc2ccc(S(N)(=O)=O)cc2)n1`, the inhibition of growth at 10 µM with SK-MEL-28, with NCI-H522, in the test on EKVX, in the test with COLO 205, in the test on OVCAR-8 and in the test on SNB-19 was less than 10% throughout. The inhibition of growth at 10 µM is less than 10% with SK-OV-3; less than 10% in the test with NCI-H322M; less than 10% in the test with SF-295; less than 10% in the test with 786-0; 13% with UO-31; less than 10% in the test with TK-10. For the same compound, the inhibition of growth at 10 µM in the test on IGROV-1, in the test with RXF 393, in the test with DU-145, in the test on Malme-3M, in the test on LOX IMVI and in the test with SN12C was less than 10% in each case. The inhibition of growth at 10 µM in the test on HT-29 and with Hs-578T was less than 10% in each case.
Turning to `NS(=O)(=O)c1ccc(Nc2nc(N/N=C/c3cccs3)nc(Nc3ccccc3)n2)cc1`, the inhibition of growth at 10 µM in the test with SK-MEL-28 was 20%; with NCI-H522 it was 20%; in the test with EKVX, 24%; in the test with COLO 205, 18%; in the test with OVCAR-8, 29%; with SNB-19, less than 10%. Also, the inhibition of growth at 10 µM with SK-OV-3 was less than 10%; with NCI-H322M, 23%; in the test with SF-295 it was 23%; with 786-0, 13%; in the test with UO-31 it was 16%; in the test on TK-10, less than 10%. The inhibition of growth at 10 µM in the test with IGROV-1 is 65%; with RXF 393 it was 52%; in the test on DU-145 it was 40%; with Malme-3M, 20%; with LOX IMVI, 32%; in the test on SN12C it was 13%. Also, the inhibition of growth at 10 µM with HT-29 amounted to 29%; in the test on Hs-578T, 34%.
Consider `NS(=O)(=O)c1ccc(Nc2nc(N/N=C/c3ccc(F)cc3)nc(Nc3ccccc3)n2)cc1`, for which the inhibition of growth at 10 µM turned out to be 36% with SK-MEL-28; 84% in the test on NCI-H522; 37% in the test on EKVX; 79% in the test on COLO 205; 70% in the test with OVCAR-8; 30% in the test with SNB-19. Besides, the inhibition of growth at 10 µM amounted to 28% in the test with SK-OV-3; 41% in the test with NCI-H322M; 29% in the test on SF-295; 41% in the test on 786-0; 33% in the test with UO-31; 98% in the test with TK-10. Moreover, the inhibition of growth at 10 µM with IGROV-1 amounted to 56%; in the test on RXF 393, 42%; in the test on DU-145, 68%; in the test with Malme-3M, 42%; in the test on LOX IMVI, 39%; in the test on SN12C, 49%. The inhibition of growth at 10 µM amounted to 95% with HT-29 and 59% with Hs-578T.
Take `COc1ccc(/C=N/Nc2nc(Nc3ccccc3)nc(Nc3ccc(S(N)(=O)=O)cc3)n2)cc1`: the inhibition of growth at 10 µM in the test with SK-MEL-28 was determined as 21%; in the test with NCI-H522, 17%; with EKVX, 11%; with COLO 205 it was 23%; in the test on OVCAR-8, 32%; in the test on SNB-19, 13%. Besides, the inhibition of growth at 10 µM was less than 10% in the test on SK-OV-3; 15% in the test with NCI-H322M; 29% with SF-295; 26% in the test on 786-0; 22% in the test with UO-31; 20% in the test with TK-10. For the same compound, the inhibition of growth at 10 µM in the test with IGROV-1 worked out at 41%; in the test with RXF 393, 77%; in the test with DU-145, 34%; in the test with Malme-3M it was 18%; in the test with LOX IMVI, 47%; in the test with SN12C it was 19%. In addition, the inhibition of growth at 10 µM with HT-29 was 44%; with Hs-578T, 41%.
As to `NS(=O)(=O)c1ccc(Nc2nc(N/N=C/c3cccc4ccccc34)nc(Nc3ccccc3)n2)cc1`, the inhibition of growth at 10 µM was 20% with SK-MEL-28; 24% with NCI-H522; 20% in the test with EKVX; 18% with COLO 205; 40% in the test with OVCAR-8; less than 10% in the test on SNB-19. The inhibition of growth at 10 µM was less than 10% in the test on SK-OV-3; less than 10% in the test on NCI-H322M; 29% in the test on SF-295; 56% in the test on 786-0; 18% in the test with UO-31; less than 10% with TK-10. Also, the inhibition of growth at 10 µM was found to be 26% with IGROV-1; 64% in the test with RXF 393; 31% with DU-145; 19% in the test with Malme-3M; 44% in the test with LOX IMVI; 12% in the test with SN12C. Moreover, the inhibition of growth at 10 µM in the test on HT-29 is 36%; in the test with Hs-578T, 11%.
With `NS(=O)(=O)c1ccc(Nc2nc(N/N=C/c3ccccc3)nc(Nc3ccccc3)n2)cc1`, the inhibition of growth at 10 µM was 27% in the test with SK-MEL-28; less than 10% with NCI-H522; 29% in the test with EKVX; 14% with COLO 205; 20% in the test on OVCAR-8; less than 10% in the test on SNB-19. Moreover, the inhibition of growth at 10 µM in the test with SK-OV-3 is less than 10%; in the test on NCI-H322M it was 27%; with SF-295, 27%; with 786-0, 33%; in the test with UO-31, 34%; in the test with TK-10 it was less than 10%. For the same compound, the inhibition of growth at 10 µM in the test with IGROV-1 was 38%; in the test on RXF 393, 87%; with DU-145, 38%; with Malme-3M it was 22%; with LOX IMVI, 35%; in the test with SN12C, 20%. Moreover, the inhibition of growth at 10 µM in the test with HT-29 was found to be 37%; in the test on Hs-578T, 43%.
As for `Cc1ccc(/C=N/Nc2nc(Nc3ccccc3)nc(Nc3ccc(S(N)(=O)=O)cc3)n2)cc1`, the inhibition of growth at 10 µM stood at 24% in the test on SK-MEL-28; 10% with NCI-H522; 21% in the test with EKVX; 16% in the test with COLO 205; 30% in the test with OVCAR-8; 22% in the test with SNB-19. The inhibition of growth at 10 µM in the test with SK-OV-3 is less than 10%; in the test on NCI-H322M, more than 10%; with SF-295, 42%; in the test with 786-0 it was 53%; in the test with UO-31, 31%; in the test on TK-10, less than 10%. The inhibition of growth at 10 µM in the test with IGROV-1 was 46%; with RXF 393 it was 102%; in the test with DU-145 it was 34%; in the test on Malme-3M, less than 10%; in the test on LOX IMVI, 45%; in the test on SN12C it was 17%. Moreover, the inhibition of growth at 10 µM in the test on HT-29 turned out to be 45%; in the test on Hs-578T it was 37%.
